In article PMC5520492, “Inhibition of DNA2 nuclease as a therapeutic strategy targeting replication stress in cancer cells” (Oncogenesis, 2017):
Where a name gives a salt, the structure may show the parent alone. Read-outs that look alike come from different tables or passages of the source.

Key:
T5 nuclease = target: T1, T5 nuclease (Escherichia phage T5, UniProt P06229); test: T5 nuclease counter-screen (fluorescence nuclease assay); format: biochemical; set-up: concentration or dose not given beside the values; details: re-screening against T5 nuclease
T1 construct: purchased NEB
Experimental: (§1) The screen entailed the use of oligonucleotide (dT)30 having a reporter fluorescent moiety, 6-FAM on the 5′ end, and the dark quenching group, Iowa Black FQ, on the 3′ end. In addition, a second dark quencher ZEN was placed between the 9th and 10th base (Figure 2a). The fluorescence emitted by 6-FAM is quenched by FRET, but it increases when DNA is degraded by Dna2. […] The inhibitory activity of the compounds was determined as a reduction in fluorescent signal compared with the dimethylsulfoxide (DMSO) only control. […] We screened ~50 000 chemical compounds from six different libraries (Supplementary Table S1) to identify chemical inhibitors of the Dna2 nuclease activity. […] The DNA2 nuclease domain is well conserved among eukaryotes, and therefore we reasoned that inhibitors of yDna2 will likely also work with the human counterpart.
(§2) Initial screen, it was performed with yDna2.[22] Then, the top candidate compounds were tested on hDNA2. Identical reaction conditions were used for assaying the nuclease activity of yDna2 and hDNA2. […] The reaction buffer was 20 mM HEPES/NaOH, pH 7.5, 60 mM KCl, 1 mM DTT, 100 μg/ml bovine serum albumin and 0.05% Triton X-100. The nuclease assay was initiated by adding MgCl2 (3 mM final concentration). T5 nuclease was assayed in the buffer (50 mM potassium acetate, pH 7.9, 20 mM Tris-acetate, 10 mM magnesium acetate and 1 mM DTT) provided by the vendor (NEB, Ipswich, MA, USA). The concentration of the fluorogenic substrate was 0.1 μM. The optimal amount of yDna2, hDNA2 and T5 nuclease was determined by utilizing the Kaleidagraph software (Reading, PA, USA) to fit the data according to Michaelis Menton Kinetics (V=V0+Vmax*x/(Km+x)). […] The Z’ value was calculated as previously described.[50] Cell proliferation was determined using 4,6-diamidino-2-phenylindole staining followed by high-throughput microscopy in a 384-well plate setup. In brief, cells were fixed with formaldehyde, washed and stained with 4,6-diamidino-2-phenylindole and the number of nuclei in each well counted by automated microscopy. The data were analyzed as described.[51]

yDna2 = target: T2, yDna2 (Saccharomyces cerevisiae, UniProt P38859); test: High-throughput fluorescence nuclease assay with yDna2 (triply labeled (dT)30 ssDNA); format: biochemical, yeast; details: for inhibition at 33.33 µM: read-out: % Inhibition yDna2
T2 construct: made in house
Experimental: as §1, §2

U2OS cells = test: Cell-based viability/proliferation screen, DAPI staining and automated microscopy; set-up: species or system human; details: Homo sapiens, 10 pM to 10 μM, DAPI staining, read-out: IC50 from Screening Cell Based
Experimental: The biological effectiveness of the 39 compounds selected by re-screening was determined by measuring their half maximal inhibitory concentration (IC50) biochemically and in a cell-based system using the 384-well platform (Supplementary Table S2). […] We conducted the viability assay in duplicate on three separate occasions using a concentration range of 10 pM to 10 μM for each compound. Cell proliferation was determined using 4,6-diamidino-2-phenylindole staining and microscopy.
In addition, a second dark quencher ZEN (N,N-diethyl-4-(4-nitronaphthalen-1-ylazo)-phenylamine, absorption max.=532 nm) is placed between 9th and 10th base (Figure 2a). Initial screen, it was performed with yDna2.[22] Then, the top candidate compounds were tested on hDNA2. Identical reaction conditions were used for assaying the nuclease activity of yDna2 and hDNA2. […] The reaction buffer was 20 mM HEPES/NaOH, pH 7.5, 60 mM KCl, 1 mM DTT, 100 μg/ml bovine serum albumin and 0.05% Triton X-100. The nuclease assay was initiated by adding MgCl2 (3 mM final concentration). T5 nuclease was assayed in the buffer (50 mM potassium acetate, pH 7.9, 20 mM Tris-acetate, 10 mM magnesium acetate and 1 mM DTT) provided by the vendor (NEB, Ipswich, MA, USA). The concentration of the fluorogenic substrate was 0.1 μM. The optimal amount of yDna2, hDNA2 and T5 nuclease was determined by utilizing the Kaleidagraph software (Reading, PA, USA) to fit the data according to Michaelis Menton Kinetics (V=V0+Vmax*x/(Km+x)). […] All the compounds were dissolved in DMSO and DMSO alone was used as control; the final concentration of DMSO was at 3.33% for protein-based assay and 0.1% for cell-based assay. The Z’ value was calculated as previously described.[50] Cell proliferation was determined using 4,6-diamidino-2-phenylindole staining followed by high-throughput microscopy in a 384-well plate setup. In brief, cells were fixed with formaldehyde, washed and stained with 4,6-diamidino-2-phenylindole and the number of nuclei in each well counted by automated microscopy. The data were analyzed as described.[51]

[1] = screen at fixed inhibitor concentration (33.33 μM), 0.09 nM Dna2

T1 sequence (P06229 whole entry): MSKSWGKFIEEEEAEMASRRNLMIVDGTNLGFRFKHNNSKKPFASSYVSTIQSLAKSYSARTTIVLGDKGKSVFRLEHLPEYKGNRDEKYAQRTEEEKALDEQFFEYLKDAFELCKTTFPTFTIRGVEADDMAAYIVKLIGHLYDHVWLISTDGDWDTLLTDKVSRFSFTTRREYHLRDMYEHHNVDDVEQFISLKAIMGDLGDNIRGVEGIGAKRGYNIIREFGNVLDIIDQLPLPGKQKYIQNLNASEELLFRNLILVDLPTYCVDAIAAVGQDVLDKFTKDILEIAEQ
T2 sequence (P38859 whole entry): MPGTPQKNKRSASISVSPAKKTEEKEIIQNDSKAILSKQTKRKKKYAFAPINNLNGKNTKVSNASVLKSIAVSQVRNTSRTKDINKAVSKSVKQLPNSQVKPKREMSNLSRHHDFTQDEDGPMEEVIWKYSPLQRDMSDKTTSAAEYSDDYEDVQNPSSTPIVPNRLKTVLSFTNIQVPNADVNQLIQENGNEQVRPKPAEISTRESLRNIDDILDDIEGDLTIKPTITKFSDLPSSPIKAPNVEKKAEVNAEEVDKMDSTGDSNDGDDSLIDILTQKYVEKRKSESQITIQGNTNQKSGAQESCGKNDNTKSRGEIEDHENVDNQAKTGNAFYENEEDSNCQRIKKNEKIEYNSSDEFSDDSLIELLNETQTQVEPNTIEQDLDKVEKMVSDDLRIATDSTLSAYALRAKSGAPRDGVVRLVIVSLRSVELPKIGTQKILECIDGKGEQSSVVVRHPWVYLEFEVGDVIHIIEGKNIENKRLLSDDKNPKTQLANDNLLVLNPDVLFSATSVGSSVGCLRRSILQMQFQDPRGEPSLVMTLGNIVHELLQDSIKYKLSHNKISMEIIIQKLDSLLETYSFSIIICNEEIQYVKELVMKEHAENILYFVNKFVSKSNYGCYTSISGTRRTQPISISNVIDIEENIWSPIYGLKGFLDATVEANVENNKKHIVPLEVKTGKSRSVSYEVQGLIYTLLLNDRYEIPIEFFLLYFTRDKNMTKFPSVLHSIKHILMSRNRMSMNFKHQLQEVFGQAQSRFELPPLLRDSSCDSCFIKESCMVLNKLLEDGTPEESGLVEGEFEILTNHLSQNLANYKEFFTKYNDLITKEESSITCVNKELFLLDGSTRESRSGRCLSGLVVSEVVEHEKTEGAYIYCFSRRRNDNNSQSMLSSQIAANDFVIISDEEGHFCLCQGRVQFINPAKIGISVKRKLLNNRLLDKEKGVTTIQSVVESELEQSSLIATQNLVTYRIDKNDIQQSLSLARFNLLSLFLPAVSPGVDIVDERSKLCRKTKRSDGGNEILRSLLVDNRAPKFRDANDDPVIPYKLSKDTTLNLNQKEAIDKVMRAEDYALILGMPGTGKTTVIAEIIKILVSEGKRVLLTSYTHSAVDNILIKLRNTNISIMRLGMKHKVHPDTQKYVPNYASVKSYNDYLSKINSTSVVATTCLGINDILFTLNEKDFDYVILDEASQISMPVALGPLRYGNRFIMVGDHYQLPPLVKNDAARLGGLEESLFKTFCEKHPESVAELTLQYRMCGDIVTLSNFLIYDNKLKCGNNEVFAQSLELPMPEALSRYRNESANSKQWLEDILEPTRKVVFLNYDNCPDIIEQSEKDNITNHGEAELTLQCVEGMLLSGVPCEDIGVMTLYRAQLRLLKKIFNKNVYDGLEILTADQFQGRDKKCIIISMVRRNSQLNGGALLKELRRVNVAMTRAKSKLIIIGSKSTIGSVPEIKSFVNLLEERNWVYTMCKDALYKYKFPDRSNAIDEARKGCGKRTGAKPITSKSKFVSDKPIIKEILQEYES

Row | Compound | % Inhibition T5 nuclease (T5 nuclease) | % Inhibition yDna2 (yDna2; [1]) | also measured
1 | CN1CCN(c2ccc3nc(-c4c(N)c5c(F)cccc5[nH]c4=O)[nH]c3c2)CC1 [(Dovitinib) CHIR258, Dovitinib, reference compound] | 60.2% | – | inhibition at 33.33 µM (yDna2; [1]): 54%
2 | CCCCC(CC)CNC(=N)NC(=N)NCCCCCCNC(=N)NC(=N)NCC(CC)CCCC (stereo not drawn) [Alexidine dihydrochloride, reference compound] | 100% | – | inhibition at 33.33 µM (yDna2; [1]): 63.5%
3 | CN(C)C/C=C/C(=O)Nc1cc2c(Nc3ccc(F)c(Cl)c3)ncnc2cc1O[C@H]1CCOC1 [BIBW2992, reference compound] | – | – | IC50 (U2OS cells): 1.2 µM; IC50 (yDna2; compounds that inhibit yDna2 but not T5 nuclease, 384-well platform, read-out: IC50 from Screening In Vitro): 7.2 µM
4 | COc1cc(-c2ccc(N=Nc3ccc4c(S(=O)(=O)[O-])cc(S(=O)(=O)[O-])c(N)c4c3O)c(OC)c2)ccc1N=Nc1ccc2c(S(=O)(=O)[O-])cc(S(=O)(=O)[O-])c(N)c2c1O.[Na+].[Na+].[Na+].[Na+] [Chicago Sky blue 6B, reference compound] | 100% | 69% | –
5 | COc1ccc2c(C)nc(NC3=NC(C)(C)CC(C)=N3)nc2c1 [Compound 5309857] | 77.3% | 59.9% | –
6 | COc1cccc2c1C(=O)c1c(O)c3c(c(O)c1C2=O)C[C@@](O)(C(C)=O)C[C@@H]3O[C@H]1C[C@H](N)[C@H](O)[C@H](C)O1 [Daunorubicin hydrochloride, reference compound] | 98.1% | – | inhibition at 33.33 µM (yDna2): 100%
7 | COc1cccc2c1C(=O)c1c(O)c3c(c(O)c1C2=O)C[C@@](O)(C(=O)CO)C[C@@H]3O[C@H]1C[C@H](N)[C@H](O)[C@H](C)O1 [Doxorubicin hydrochloride, reference compound] | 100% | – | inhibition at 33.33 µM (yDna2; [1]): 100%
8 | O=C1c2c(O)ccc(O)c2C(=O)c2c(NCCNCCO)ccc(NCCNCCO)c21 [Mitoxantrone dihydrochloride, reference compound] | 100% | – | inhibition at 33.33 µM (yDna2; [1]): 100%
9 | COc1ccc2nc(C)cc(NCCCCCCCCCNc3cc(C)nc4ccc(OC)cc34)c2c1 [NSC10010] | 93.7% | 90.3% | –
10 | CCN(CC)CCCC(C)Nc1nc(C)cc(Nc2ccc3nc(C)cc(N)c3c2)n1 (stereo not drawn) [NSC23766, reference compound] | 94.7% | 100% | –
11 | Cc1cc(N)c2cc(NC(=O)/C=C/c3ccccc3Cl)ccc2n1 [NSC33353] | 100% | 100% | –
12 | Cc1cc2nc3ccc(N(C)C)cc3[s+]c2cc1N [NSC36758] | 83.9% | – | inhibition at 33.33 µM (yDna2; [1]): 100%
13 | O=C(Nc1ccc(C2=NCCN2)cc1)c1ccc(C(=O)Nc2ccc(C3=NCCN3)cc2)c(Cl)c1 [NSC60339] | 100% | – | inhibition at 33.33 µM (yDna2): 100%
14 | O=C(Nc1ccc(C2=NCCN2)cc1)c1ccc(Cl)c(C(=O)Nc2ccc(C3=NCCN3)cc2)c1 [NSC67436] | 100% | 100% | –
15 | Cc1cc2c(c3oc(C4(C)OC4C4OC4C)cc(=O)c13)C(=O)c1c(O)c(C3CC(C)(N(C)C)C(O)C(C)O3)cc(C3CC(N(C)C)C(O)C(C)O3)c1C2=O (stereo not drawn) [NSC70929] | 100% | 100% | –
16 | COc1cccc2c1C(=O)c1c(O)c3c(c(O)c1C2=O)CC(O)(/C(C)=N/O)CC3OC1CC(N)C(O)C(C)O1 (stereo not drawn) [NSC143491] | 97.9% | 100% | –
17 | O=C(Nc1ccc(Nc2ccncc2)cc1)c1ccc(Nc2ccnc3ccc([N+](=O)[O-])cc23)cc1 [NSC146771] | 100% | 76.5% | –

Row | Compound | % Inhibition T5 nuclease (T5 nuclease) | % Inhibition yDna2 (yDna2; [1]) | also measured
18 | Cc1cc(N)c2ccccc2[n+]1CCCCCCCCCC[n+]1c(C)cc(N)c2ccccc21 [NSC166454] | 88.9% | – | inhibition at 33.33 µM (yDna2; [1]): 55.4%
19 | NC(N)=NCCCS(=O)(=O)Nc1ccc(Nc2c3ccccc3nc3cc([N+](=O)[O-])ccc23)cc1 [NSC177365] | 100% | 83.3% | –
20 | c1ccc2c(NCCCCCCCCNc3c4ccccc4nc4ccccc34)c3ccccc3nc2c1 [NSC219734] | 100% | 85% | –
21 | Cn1ccc(=Nc2ccc(NC(=O)c3ccc(N=c4ccn(C)c5ccc([N+](=O)[O-])cc45)cc3)cc2)cc1 [NSC260594] | 100% | 94.8% | –
22 | COc1ccc2c(NCCCCCCNc3c4ccccc4nc4cc(OC)ccc34)c3ccccc3nc2c1 [NSC260610] | 100% | – | inhibition at 33.33 µM (yDna2; [1]): 100%
23 | Cc1cc(NCCCCCCCNc2cc(C)nc3cc(N)ccc23)c2ccc(N)cc2n1 [NSC273829] | 56.5% | – | inhibition at 33.33 µM (yDna2; [1]): 74.4%
24 | Nc1ccc(Cn2ccc3c4c(N)nc(N)nc4ccc32)cc1 [NSC309401] | 100% | 100% | –
25 | CC(=O)[O-].Cc1c2cc[n+](CCN3CCCCC3)cc2c(C)c2c1[nH]c1ccc(O)cc12 [NSC311153] | 100% | 100% | –
26 | CCN(CC)Cc1cc2[nH]c3c4ccc(Cl)cc4ncc3c2cc1OC [NSC317605] | 99.2% | 100% | –
27 | CO[C@H]1C[C@@H]2\C=C(C)/C=C/C=C\C(=O)N[C@H](c3ccccc3)C/C=C/CC[C@H](O)CC(=O)C2=C1O [NSC343256] | 72% | 71% | –
28 | ClN=C1C=CC=CC1=NCl [NSC344494] | 97.9% | 51.4% | –
29 | Cl.O=C1c2cccc(NCCCNCCO)c2C(=O)c2cccc(NCCCNCCO)c21 [NSC363998] | 74.5% | 99% | –
30 | [Mo] [NSC622124] | 96.1% | 93.4% | –
31 | CC[N+](C)(CC)CCC[n+]1c(-c2ccccc2)c2cc(N)ccc2c2ccc(N)cc21.[I-].[I-] [Propidium Iodide, reference compound] | 100% | 100% | –
32 | CCN(CC)CCCC(C)Nc1c2ccc(Cl)cc2nc2ccc(OC)cc12 (stereo not drawn) [Quinacrine dihydrochloride, reference compound] | 55.4% | – | inhibition at 33.33 µM (yDna2; [1]): 67.8%
33 | Deqalinium dichloride [reference compound] | 100% | 100% | –
